Among the data in paper PMC8760635 (Analytical chemistry, 2021) are Kd values, retold here.

This assay deals with recombinant His6-tagged human FABP5 (Homo sapiens, UniProt Q01469). Kind of assay: Isothermal titration calorimetry. The class given is binding. (In general: In ITC the heat of successive injections is recorded.)

Each structure is given as a SMILES string. Like-named read-outs stand apart in the source and are kept apart here.

One may read the Kd as the equilibrium constant for the complex coming apart.

Chain of recombinant His6-tagged human FABP5 (Q01469 whole entry): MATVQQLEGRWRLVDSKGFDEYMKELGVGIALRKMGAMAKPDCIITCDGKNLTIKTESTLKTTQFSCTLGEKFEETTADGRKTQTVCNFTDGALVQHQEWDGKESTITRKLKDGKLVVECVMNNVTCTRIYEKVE

With `O=C(O)C(F)(F)C(F)(F)C(F)(F)C(F)(F)C(F)(F)C(F)(F)C(F)(F)F` [PFOA, perfluorooctanoic acid], the dissociation constant (Kd) turned out to be 77 ± 17 µM.
For the compound `O=P(O)(O)C(F)(F)C(F)(F)C(F)(F)C(F)(F)C(F)(F)C(F)(F)C(F)(F)C(F)(F)F` [PFOPA, perfluorooctanephosphonic acid], the dissociation constant Kd (read-out: dissociation constant (Kd), ITC, 25 °C, 100 mM NaCl, 30 mM Tris (pH 7.5), 5% glycerol, one-binding-site model, ± error of the fit) worked out at 167 ± 34 µM.
